Like-named read-outs stand apart in the source and are kept apart here.
What was measured:
[1] = tested on: IL-8 production in influenza virus-infected U937 cells (H1N1); assay: cells; type: cell-based, Human; details: for IC50: U-937
[2] = tested on: influenza virus infection; design: method as in Florence et al., 2018; Chen et al., 2019; details: without compromising viral titers; ref Florence et al., 2018; Chen et al., 2019; cited from earlier work
in vitro = details: human
[3] = tested on: IP-10 production in influenza virus-infected U937 cells (H1N1); assay: cells; type: cell-based
[4] = tested on: MCP-1 production in influenza virus-infected U937 cells (H1N1); assay: cells; type: cell-based
p38 = p38 (Homo sapiens, UniProt Q16539); assay: Cell-free kinase activity assay, p38; type: biochemical; details: p38 kinases in vitro
[5] = tested on: phosphorylation of p38 (p-p38); assay: Western blot of phosphorylated p38 in influenza-infected U937 cells; type: cell-based, Human
Description: (§1) Figure 6 TKIs repress cytokine production by suppressing the p38 pathway. […] Cells were lysed 24 h post-infection, and the levels of phosphorylated p38 and ERK (p-p38 and p-ERK) and total p38 and ERK were assessed by western blot. A quantification of phosphorylated p38 levels for each drug treatment was included in the right panel of each figure.
(§2) Cells were homogenized in RIPA lysis buffer containing a 1% protease inhibitor cocktail (Roche) to extract total protein. Equal amounts of protein homogenates were separated by SDS-PAGE (Bio-Rad) and transferred onto polyvinylidene difluoride membranes (pore size […]; Bio-Rad). The membranes were then blotted with monoclonal antibodies against GAPDH (1:1000, ZSGB-BIO), p38, phosphor-p38, ERK, phospho-ERK, STAT1, phosphor-STAT1 (1:1000; Cell Signaling Technology), STAT3, and phosphor-STAT3 (1:1000; Cell Signaling Technology), respectively. Protein levels were detected with horseradish peroxidase-tagged secondary antibodies and enhanced chemiluminescence western blot reagents (Advansta), followed by visualization using an enhanced chemiluminescence system (AlphaEase FluorChem System, Alpha Innotech Corp.). Bands were quantified using ImageJ (Ver. 1.46; NIH, Bethesda, MD).

[6] = tested on: STAT1 phosphorylation (p-STAT1); type: cell-based, Human
[7] = tested on: ERK phosphorylation (p-ERK); assay: Western blot of phosphorylated ERK in influenza-infected U937 cells; type: cell-based, Human; details: 24 h post-infection, western blot
Description: Figure 5 Raf/MEK/ERK and p38 signal pathways are involved in the regulation of cytokines in U937 cells. (A–C) Determination of inhibition rates on IL-8, IP-10, and MCP-1 by each compound in the MAPK group and the distribution of targets between subgroups. U937 cells were infected with influenza A/PuertoRico/8/1934 virus (MOI = 0.1) in the presence of 10 μM of each inhibitor and then incubated at 37°C for 48 h. The distribution of the targets of all the inhibitors in the MAPK group was then analyzed and categorized into subgroups. […] The supernatants were harvested 48 h post-infection, and the levels of IL-8, MCP-1, and IP-10 were measured by AlphaLISA. (E) The cells were treated as in (C) except being lysed 24 h post-infection, and the levels of phosphorylated STAT1, p38, ERK (p-STAT1, p-p38, p-ERK), total STAT1, p38, ERK, and viral protein HA were assessed by western blot. (F) A quantitative analysis of the relative levels of the phosphorylated STAT1, p38, ERK (p-STAT1, p-p38, p-ERK) in (E). The data are representative of at least three independent experiments. n.s. no significance; *p < 0.05; **p < 0.01; ***p < 0.001.
as §1
as §2, with “The membranes were then blotted with monoclonal antibodies against GAPDH (1:1000, ZSGB-BIO), p38, phosphor-p38, ERK, phospho-ERK, STAT1, phosphor-STAT1 (1:1000; Cell Signaling Technology), STAT3, and phosphor-STAT3 (1:1000; Cell Signaling Technology), respectively.” left out

[8] = tested on: IL-8 production in influenza virus-infected U937 cells (H3N2); assay: cells; type: cell-based, Human
[9] = tested on: IP-10 production in influenza virus-infected U937 cells (H3N2); assay: cells; type: cell-based, Human
[10] = tested on: MCP-1 production in influenza virus-infected U937 cells (H3N2); assay: cells; type: cell-based, Human
[11] = tested on: IL-8 production in influenza virus-infected U937 cells (H7N8); assay: cells; type: cell-based, Human; details: read-out: EC50 IL-8
[12] = tested on: IP-10 production in influenza virus-infected U937 cells (H7N8); assay: cells; type: cell-based, Human; details: read-out: EC50 IP-10
[13] = tested on: MCP-1 production in influenza virus-infected U937 cells (H7N8); assay: cells; type: cell-based, Human; details: read-out: EC50 MCP-1
[14] = Homo sapiens, U-937, secondary screen, Supplemental Table 1, read-out: EC50 IL-8
[15] = CC50, secondary screen, Supplemental Table 1
[16] = Homo sapiens, U-937, read-out: EC50 IP-10
[17] = Homo sapiens, U-937, read-out: EC50 MCP-1
[18] = Homo sapiens, U-937, secondary screen, Supplemental Table 1, read-out: EC50 IP-10
[19] = Homo sapiens, U-937, secondary screen, Supplemental Table 1; read-out: EC50 MCP-1

Chain of p38 (Q16539 whole entry): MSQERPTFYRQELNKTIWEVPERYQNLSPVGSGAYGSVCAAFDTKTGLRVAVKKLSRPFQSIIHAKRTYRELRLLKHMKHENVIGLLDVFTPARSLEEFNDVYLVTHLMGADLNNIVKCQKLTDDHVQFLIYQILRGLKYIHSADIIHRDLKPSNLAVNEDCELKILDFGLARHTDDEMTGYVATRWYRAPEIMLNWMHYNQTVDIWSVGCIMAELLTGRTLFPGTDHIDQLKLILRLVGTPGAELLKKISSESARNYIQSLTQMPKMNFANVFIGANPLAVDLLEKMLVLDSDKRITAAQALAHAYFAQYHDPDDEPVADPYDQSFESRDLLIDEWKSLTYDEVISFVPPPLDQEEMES

In the case of `C=CC(=O)N1CCC[C@@H](n2nc(-c3ccc(Oc4ccccc4)cc3)c3c(N)ncnc32)C1` [Ibrutinib (PCI-32765), Ibrutinib], the EC50 [1, 14] is listed as 1220 nM, the “protection of mice from lethal influenza infection” value [2] is listed as “protecting mice from lethal influenza infection” and the CC50 (in vitro; [15]) is listed as > 100000 nM.
For `CC(C)(C)Cn1c(N)nc2ccc(-c3[nH]c(C(C)(C)C)nc3-c3ccc(F)cc3)nc21` [LY2228820], the IC50 ([1]; Homo sapiens) was 5 nM, the EC50 [1, 14] was < 5 nM and the EC50 [3, 16] was 3700 nM. It also gave an EC50 [4, 17] of 2230 nM, an IC50 ([4]; Homo sapiens, U-937, read-out: IC50 MCP-1) of 2200 nM and an IC50 (p38) of 60 nM. The CC50 (in vitro; [15]) was 50000 nM.
In the case of `O=C(NOC[C@H](O)CO)c1ccc(F)c(F)c1Nc1ccc(I)cc1F` [PD0325901], the “secretion of IL-8” value [1] is reported as “inhibited”, the IC50 ([1]; Homo sapiens) is reported as < 20 nM and the EC50 [1, 14] is reported as < 5 nM. The EC50 [3, 18] was 690 nM, the “secretion of IP-10” value ([3]; at high concentrations, 48 h post-infection) was “inhibit” and the EC50 [4, 19] was 100 nM. The IC50 ([4]; Homo sapiens, U-937; read-out: IC50 MCP-1) was < 20 nM, the “secretion of MCP-1” value ([4]; different concentrations of PD0325901, 48 h post-infection) was “inhibited” and the “phosphorylation of p38” value ([5]; 24 h post-infection, western blot, cellular model) was “suppress”. The IC50 ([5]; Homo sapiens, U-937, read-out: IC50 p-p38) was 10 nM, the “phosphorylation of STAT1 proteins” value [6] was “inhibit” and the “phosphorylation level of ERK” value [7] was “decreased”. For the same compound, the CC50 (in vitro) was > 100000 nM.
For `COc1cc(Nc2ncc(F)c(Nc3ccc4c(n3)NC(=O)C(C)(C)O4)n2)cc(OC)c1OC` [R406], the EC50 ([1]; read-out: EC50 IL-8) was 130 nM, the EC50 ([1]; secondary screen, Supplemental Table 1, read-out: EC50 IL-8) was 820 nM and the EC50 ([3]; U937 cells infected with H1N1, read-out: EC50 IP-10) was 431 nM. It also gave an EC50 ([3]; secondary screen, Supplemental Table 1, read-out: EC50 IP-10) of 3500 nM, an EC50 ([4]; U937 cells infected with H1N1; read-out: EC50 MCP-1) of 240 nM and an EC50 ([4]; secondary screen, Supplemental Table 1; read-out: EC50 MCP-1) of 270 nM. For the same compound, the EC50 [8] was 690 nM, the EC50 [9] was 5 nM and the EC50 [10] was 62 nM. For the same compound, the EC50 [11] was 88 nM, the EC50 [12] was 90 nM and the EC50 [13] was 35 nM. The CC50 (U937 cells) was > 100000 nM, the CC50 (U937 cells; U937 cells, Table 1 section H1N1) was > 100000 nM and the CC50 (U937 cells; U937 cells, Table 1 section H3N2) was > 100000 nM. The CC50 (U937 cells; secondary screen, Supplemental Table 1) was > 100000 nM.
For `Cn1c(=O)c(F)c(Nc2ccc(I)cc2F)c2c(=O)n(C[C@@H](O)CO)cnc21` [TAK-733], the EC50 ([1]; Homo sapiens, U-937, read-out: EC50 IL-8) was < 5 nM, the EC50 [3, 18] was 1400 nM and the EC50 [4, 19] was 40 nM. The CC50 (in vitro; CC50) was 45000 nM.
In the case of `O=C(Nc1ccc(-c2ccnc(Nc3ccc(N4CCOCC4)cc3)n2)cc1)C1CCCN1` (centres unmarked) [XL019], the EC50 [1, 14] is reported as 510 nM, the EC50 [3, 16] is reported as 990 nM and the EC50 [4, 17] is reported as 940 nM. It also gave a CC50 (in vitro; [15]) of 26700 nM.

Reference: publication PMC11808136, “Screening and identification of host signaling pathways for alleviating influenza-induced production of pro-inflammatory cytokines, IP-10, IL-8, and MCP-1, using a U937 cell-based influenza model” (Frontiers in Microbiology, 2025)
